Test results published in patent US20020019420A1, “Methods and compositions for treating gastric disorders using optically pure (+)-pantoprazole” (Sepracor Inc., priority 1993, published 2002).
Where two headings read alike, the source gives them in different places.

Assays:
[1] = system: endogenous acid secretion; assay: reduction of endogenous acid secretion in pylorus-ligated rats; format: in vivo, rat
Text: This may increase pantoprazole's selectivity for the acid secreting parietal cells, where low pH conditions exist in the intracellular canaliculi. In intact animals, pantoprazole is active in inhibiting gastric acid secretion in both rats and dogs. Specifically, the intravenous and oral doses required to reduce endogenous acid secretion in pylorus-ligated rats by 50% are in the 1-3 μmole/kg range. […] Racemic pantoprazole is also effective at doses less than 5 μmole/kg in inhibiting exogenously stimulated acid. secretion induced by a variety of agonists, indicating general activity of the drug in inhibiting acid secretion.

[2] = acute toxicity LD50 in mice; format: in vivo
[3] = patients with duodenal ulcers, after four weeks of 20 to 80 mg per day; cited from earlier work
[4] = rats, two year study; cited from earlier work
[5] = neutral and moderately acidic conditions; cited from earlier work
[6] = system: endogenous acid secretion; settings: pylorus-ligated rats, cited from earlier work
[7] = system: exogenously stimulated acid secretion; settings: variety of agonists; cited from earlier work
[8] = system: hepatic drug metabolizing enzyme systems; settings: intact rats and rat microsomal enzyme preparations; cited from earlier work
[9] = humans, short-term administration; cited from earlier work
[10] = rat, cited from earlier work
[11] = cited from earlier work
[12] = weak acid; cited from earlier work
beta-adrenergic = settings: L-form versus D-enantiomer; cited from earlier work

Q: Which results are given for `COc1ccnc(C[S+]([O-])c2nc3ccc(OC(F)F)cc3[nH]2)c1OC` (racemic) [racemic pantoprazole]?
A: calculated oral/intravenous (p.o./i.v.) ratio of the 50% doses [1]: approximately 2; p.o./i.v. LD50 ratio [2]: approximately 2; ulcer healing [3]: 90-100%; finding in carcinogenicity study [4]: hepatocellular neoplasia; chemical stability compared with omeprazole [5]: more chemically stable; intravenous dose required to reduce endogenous acid secretion by 50% ([6]; intravenous): 1 to 3 µmol/kg; oral dose required to reduce endogenous acid secretion by 50% ([6]; oral): 1 to 3 µmol/kg; effective dose inhibiting exogenously stimulated acid secretion [7]: less than 5 μmole/kg; inhibition of hepatic drug metabolizing enzyme systems compared to omeprazole [8]: weaker inhibitor; fasting serum gastrin levels [9]: significantly elevated; oral LD50 ([10]; in vivo, po): > 2,467 μmol/kg; intravenous LD50 ([10]; intravenous): 632 µmol/kg; intravenous LD50 ([11]; mice, intravenous): 975 µmol/kg; oral LD50 ([11]; mouse, in vivo, po): 1,893 μmol/kg

Q: Which PKa [12] does the source give for `COc1ccnc(C[S+]([O-])c2nc3ccc(OC(F)F)cc3[nH]2)c1OC` (single isomer, unassigned; (+)) [(+) pantoprazole, (+) isomer of 5-(difluoromethoxy)-2-[[3,4-dimethoxy-2-pyridinyl)methyl]sulfinyl]-1H-benzimidazole] here?
A: 8.2

Q: For `CC(C)NC[C@H](O)COc1cccc2ccccc12` [L-form of propranolol, propranolol], which “potency relative to the D-enantiomer” value (beta-adrenergic) is on record?
A: 100 times
